The values that follow come from US20110098184A1, “Competitve differntial screeing” (priority 2004, published 2011).

This assay addresses human stratum cornium chymotrypsin (hSCC) (Homo sapiens, UniProt P49862). The experiment in a line: Mass spectrometric screening of a protein library against immobilized hSCC in the presence of competitor Ecotin. Type of assay: binding. Particulars: library 10 nM per member, competitor Ecotin at 1 nM, 100 nM, 4 hrs incubation, biotinylated hSCC on streptavidin beads. From the text:
In this Example, mass spectrometric screening experiments are described. FIGS. 10-13 provide data and calculations obtained during these experiments. Inhibitors of human stratum cornium chymotrypsin (hSCC) were screened from a protein library made of BBI-loop-BLA (See e.g., U.S. patent application Ser. Nos. 10/984,270 and 10/984,410; and PCT Appln. Nos. US04/36976, US04/36979; and US04/36980), all of which are incorporated by reference herein). The protein library consisted of a protein backbone in which three non-consecutive positions were randomized (cysteine constrained) at the N-terminus of the protein. HSCC (screening target) (Swissprot, accession number P49862) was biotinylated and immobilized on streptavidin beads (MagnaBind Beads; Pierce).
HSCC was incubated with a protein library at 10 nM per library member in the presence of a competitor (Ecotin; Sigma) added at 1 nM, 10 nM, and 100 nM concentrations. Following incubation (4 hrs), the beads were washed with incubation buffer to remove nonspecific binders and specific binders were eluted with an elution solution.
The recovered binders were concentrated (vacuum concentration), resuspended in a digestion buffer, reduced, alkylated, and digested with proteolytic enzyme (Lys-c; Roche). The resulting protein digests were analyzed by capillary LC-ESI-MS/MS. […]

Bridge positions count the residues as written; N and C are the ends. Peptide text beside a SMILES is read from it.

Sequence of human stratum cornium chymotrypsin (hSCC) (P49862 30-253): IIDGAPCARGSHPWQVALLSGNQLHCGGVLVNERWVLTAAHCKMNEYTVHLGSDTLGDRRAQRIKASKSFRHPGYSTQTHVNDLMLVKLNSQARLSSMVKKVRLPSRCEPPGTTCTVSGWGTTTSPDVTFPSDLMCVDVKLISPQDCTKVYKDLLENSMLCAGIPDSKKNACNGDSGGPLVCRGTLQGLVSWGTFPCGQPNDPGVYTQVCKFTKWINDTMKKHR

With `C[C@@H](O)[C@@H]1NC(=O)[C@@H](NC(=O)[C@@H]2CCCN2)CSSC[C@@H](C(=O)N[C@@H](Cc2ccc(O)cc2)C(=O)NCC(=O)NCC(=O)NCC(=O)N[C@@H](CCCCN)C(=O)O)NC(=O)[C@H](CCC(N)=O)NC(=O)[C@@H]2CCCN2C(=O)[C@@H]2CCCN2C(=O)[C@H](Cc2ccc(O)cc2)NC(=O)[C@H](CO)NC(=O)[C@H](Cc2ccccc2)NC1=O` [pj02] (H-PCTFSYPPQCYGGGK-OH; disulfide 2-10 (inferred); N-terminus and C-terminus assumed), the “binder observed after elution (capillary LC-ESI-MS/MS)” value was “observed under all conditions”.
